Two molecules from US9045482B2, “Pyrido[4,3-B]indoles and methods of use” (Medivation Technologies, Inc., priority 2009, dated 2015) can be followed below.

Test [1] concerns the target T1, human recombinant serotonin (5-Hydroxytryptamine) 5-HT6 receptor (Homo sapiens, UniProt P50406).
T1 construct: expressed in transfected cells; host or cells: human HeLa cells
In words: Serotonin 5-HT6 radioligand binding ([3H]LSD). The following applies: 0.1 μM ligand concentration. As to the method: Compounds of the invention were incubated with 1.5 nM [3H]Lysergic acid diethylamide (LSD) for 120 min at 37° C. […] Receptor proteins were filtered and washed, the filters were then counted to determine [3H]LSD specifically bound. Compounds were screened at 1 μM or lower, using 1% DMSO as vehicle. Biochemical assay results are presented as the percent inhibition of specific binding in Table 4.

Test [2] addresses T2, human recombinant adrenergic α2B receptor (Homo sapiens, UniProt P18089).
T2 construct: expressed in transfected cells; host or cells: Chinese hamster ovary (CHO-K1) cells
T2 sequence (P18089 1-450): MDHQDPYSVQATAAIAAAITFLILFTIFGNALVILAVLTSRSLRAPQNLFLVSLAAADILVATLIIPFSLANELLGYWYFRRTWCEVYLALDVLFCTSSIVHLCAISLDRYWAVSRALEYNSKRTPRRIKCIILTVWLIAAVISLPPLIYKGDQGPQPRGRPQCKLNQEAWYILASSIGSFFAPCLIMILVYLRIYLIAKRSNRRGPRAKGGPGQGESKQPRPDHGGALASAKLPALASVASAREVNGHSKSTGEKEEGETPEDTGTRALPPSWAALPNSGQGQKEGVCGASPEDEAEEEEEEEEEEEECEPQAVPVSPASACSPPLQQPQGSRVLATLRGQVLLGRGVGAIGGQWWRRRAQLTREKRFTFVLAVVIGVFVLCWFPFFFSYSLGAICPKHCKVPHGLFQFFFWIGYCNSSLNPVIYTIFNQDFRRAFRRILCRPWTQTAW
In words: Adrenergic α2B radioligand binding ([3H]Rauwolscine). The following applies: 0.1 μM ligand conc. As to the method: To evaluate in radioligand binding assays the activity of compounds of the invention, human recombinant adrenergic α2B receptor expressed in Chinese hamster ovary (CHO-K1) cells [Uhlen, S. et al., Eur. J. Pharmacol. (1998), 343(1):93] in a modified Tris-HCl buffer (50 mM Tris-HCl, pH 7.4, 12.5 mM MgCl2, 1 mM EDTA, 0.2% BSA) was used. Compounds of the invention were incubated with 2.5 nM [^3H]Rauwolscine for 60 min at 25° C. Non-specific binding was estimated in the presence of 10 μM Prozosin. Receptor proteins were filtered and washed, the filters were then counted to determine [^3H]Rauwolscine specifically bound. Compounds were screened at 1 μM or lower, using 1% DMSO as vehicle. Compounds of the invention were tested in this biochemical assay. Biochemical assay results for representative compounds were presented as the percent inhibition of specific binding in Table 3.

For test [3], the target named is human recombinant serotonin (5-Hydroxytryptamine) 5-HT7 receptor (Homo sapiens, UniProt P34969). The test can be described thus: Serotonin 5-HT7 radioligand binding ([3H]LSD). The following applies: 0.1 μM ligand concentration. The method, then:
Compounds of invention were incubated with 5.5 nM [^3H]Lysergic acid diethylamide (LSD) for 2 h at 25° C. […] Receptor proteins were filtered and washed, the filters were then counted to determine [^3H]LSD specifically bound. Compounds were screened at 1 μM or lower, using 1% DMSO as vehicle. Biochemical assay results are presented as the percent inhibition of specific binding in Table 4.

The target of test [4] is T3, human recombinant serotonin (5-Hydroxytryptamine) 5-HT2A receptor (Homo sapiens, UniProt P28223).
T3 construct: expressed in transfected cells; host or cells: Chinese hamster ovary (CHO-K1) cells
T3 sequence (P28223 whole entry): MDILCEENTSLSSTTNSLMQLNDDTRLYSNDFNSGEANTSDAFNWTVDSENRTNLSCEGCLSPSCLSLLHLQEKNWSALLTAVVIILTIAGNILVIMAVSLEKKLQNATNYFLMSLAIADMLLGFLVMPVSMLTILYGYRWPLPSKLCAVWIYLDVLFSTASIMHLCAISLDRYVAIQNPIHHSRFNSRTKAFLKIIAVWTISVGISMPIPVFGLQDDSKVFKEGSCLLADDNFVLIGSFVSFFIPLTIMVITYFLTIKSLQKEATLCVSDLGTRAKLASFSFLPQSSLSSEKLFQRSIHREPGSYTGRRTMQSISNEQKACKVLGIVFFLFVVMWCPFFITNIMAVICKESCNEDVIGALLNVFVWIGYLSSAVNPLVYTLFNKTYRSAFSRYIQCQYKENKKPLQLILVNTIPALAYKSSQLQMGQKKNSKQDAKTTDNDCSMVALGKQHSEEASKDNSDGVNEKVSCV
The test can be described thus: Serotonin 5-HT2A radioligand binding ([3H]Ketanserin). The following applies: 0.1 μM ligand concentration. The method, then: (1997), 68:1998] in a 50 mM Tris-HCl buffer, pH 7.4, was used. Compounds of the invention were incubated with 0.5 nM [^3H]Ketanserin for 60 min at 25° C. Non-specific binding was estimated in the presence of 1 μM Mianserin. Receptor proteins were filtered and washed, the filters were then counted to determine [^3H]Ketanserin specifically bound. Compounds were screened at 1 μM or lower, using 1% DMSO as vehicle. Biochemical assay results are presented as the percent inhibition of specific binding in Table 4.

Each structure is given as a SMILES string.

T1 sequence (P50406 whole entry): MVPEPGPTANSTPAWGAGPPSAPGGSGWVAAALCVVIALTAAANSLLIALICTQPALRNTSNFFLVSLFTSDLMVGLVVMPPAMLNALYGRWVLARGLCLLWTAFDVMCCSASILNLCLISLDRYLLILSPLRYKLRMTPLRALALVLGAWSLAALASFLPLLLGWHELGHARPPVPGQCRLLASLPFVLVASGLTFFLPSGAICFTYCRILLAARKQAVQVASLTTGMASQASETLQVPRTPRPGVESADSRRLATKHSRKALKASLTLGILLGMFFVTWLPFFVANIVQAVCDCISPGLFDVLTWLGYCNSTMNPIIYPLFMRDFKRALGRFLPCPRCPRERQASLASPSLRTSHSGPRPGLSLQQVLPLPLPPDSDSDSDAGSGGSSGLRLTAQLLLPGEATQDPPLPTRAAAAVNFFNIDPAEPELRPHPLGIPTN
Chain of human recombinant serotonin (5-Hydroxytryptamine) 5-HT7 receptor (P34969 whole entry): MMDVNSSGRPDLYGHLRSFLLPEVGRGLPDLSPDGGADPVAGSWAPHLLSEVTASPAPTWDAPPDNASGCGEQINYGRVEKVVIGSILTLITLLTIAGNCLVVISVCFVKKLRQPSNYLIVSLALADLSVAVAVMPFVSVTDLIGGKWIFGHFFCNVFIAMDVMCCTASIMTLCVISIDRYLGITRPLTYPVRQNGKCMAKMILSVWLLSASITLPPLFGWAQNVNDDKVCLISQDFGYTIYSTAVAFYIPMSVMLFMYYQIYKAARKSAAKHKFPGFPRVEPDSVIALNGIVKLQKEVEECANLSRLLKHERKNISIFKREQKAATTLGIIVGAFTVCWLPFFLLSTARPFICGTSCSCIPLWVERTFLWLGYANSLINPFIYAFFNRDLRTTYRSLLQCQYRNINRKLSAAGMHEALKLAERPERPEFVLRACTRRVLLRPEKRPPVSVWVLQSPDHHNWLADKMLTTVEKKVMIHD

For the molecule `Cc1cnc2c(c1)c1c(n2CC(=O)N2CCCCC2)CC2CCCN2C1` (centres unmarked) [Compound 42, 2-(3-methyl-8,9,9a,10-tetrahydro-5H-pyrido[3′,2′:4,5]pyrrolo[3,2-f]indolizin-11(7H)-yl)-1-(piperidin-1-yl)ethanone], in test [1], the “Percent Inhibition of ligand binding Serotonin 5-HT6” value is given as 2%. In addition, the “Percent Inhibition of ligand binding Adrenergic α2B” value in test [2] came to 3%. For the same molecule, in test [3], the “Percent Inhibition of ligand binding Serotonin 5-HT7” value is recorded as −1%. Moreover, the “Percent Inhibition of ligand binding Serotonin 5-HT2A” value in test [4] stood at 1%.

Consider `Cc1cnc2c(c1)c1c(n2CC(=O)N2CCCCC2)CCN2CCCC12` (centres unmarked) [Compound 41, 2-(10-methyl-2,3,5,6-tetrahydro-1H-pyrido[3′,2′:4,5]pyrrolo[2,3-g]indolizin-7(11cH)-yl)-1-(piperidin-1-yl)ethanone], for which the “Percent Inhibition of ligand binding Serotonin 5-HT6” value in test [1] is 8%. In test [2], the “Percent Inhibition of ligand binding Adrenergic α2B” value was determined as 14%. The “Percent Inhibition of ligand binding Serotonin 5-HT7” value in test [3] was −5%. The “Percent Inhibition of ligand binding Serotonin 5-HT2A” value in test [4] is given as −2%.
